From US8546392B2, “17Beta-hydroxysteroid dehydrogenase type 1 inhibitors for the treatment of hormone-related diseases” (Universitaet des Saarlandes, priority 2008, dated 2013) come the findings set out here.

The structures appear in SMILES notation.

In this experiment the target is 17β-HSD1 (Homo sapiens (Human), UniProt P14061). Description: 17β-HSD1 test assay (recombinant protein from Sf9 insect cells, 3H-estrone/NADPH). In kind it is biochemical. Particulars: for inhibition at 1 µM: read-out: HSD 1 μM (% inhibition of HSD1), inhibitor 1 μM; for inhibition at 0.1 µM: read-out: HSD1 100 nM (% inhibition), inhibitor 100 nM. As for the experimental part:
Recombinant protein obtained from Sf9 insect cells (0.1 μg/ml) is incubated with 20 mM KH2PO4, pH 7.4, 30 nM ^3H-estrone and 1 mM NADPH for 30 min at RT in the presence of the potential inhibitor in a concentration of 1 μM or 100 nM. The stock solutions of the compounds are prepared in DMSO (dimethylsulfoxide) so that the final concentration of DMSO in the sample is 1%. After the prescribed incubation time, the reaction is quenched by adding trichloroacetic acid (10% final concentration). The samples are centrifuged in microtitration plates at 400 rpm for 10 min, and the supernatants are charged on a reversed-phase HPLC equipped with a Waters Symmetrie C18 column and Waters Sentry Guard column. The isocratic HPLC run is performed at RT with a flow rate of 1 ml/min and acetonitrile/water 48:52 as the eluent. The radioactivity was measured by means of a Packard Flow Scintillation Analyzer. […]

Chain of 17β-HSD1 (P14061 whole entry): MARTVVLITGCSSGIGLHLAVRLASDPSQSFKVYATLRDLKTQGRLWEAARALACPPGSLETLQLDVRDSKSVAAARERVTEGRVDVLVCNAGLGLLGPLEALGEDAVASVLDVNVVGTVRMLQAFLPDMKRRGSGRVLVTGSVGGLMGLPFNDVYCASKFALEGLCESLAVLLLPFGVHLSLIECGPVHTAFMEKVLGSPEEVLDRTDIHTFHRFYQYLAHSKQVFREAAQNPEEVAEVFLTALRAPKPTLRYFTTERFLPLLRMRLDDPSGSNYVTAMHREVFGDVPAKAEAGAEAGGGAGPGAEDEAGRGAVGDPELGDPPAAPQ

What is called inhibition is the drop in the measured response relative to a control, in per cent. `CC(=O)Nc1ccc(-c2ccc3cc(O)ccc3c2)cc1O` [Compound 35, N-[2-Hydroxy-4-(6-hydroxy-2-naphthyl)phenyl]acetamide]: the inhibition at 1 µM was less than 10% and the inhibition at 0.1 µM was less than 10%.

With `O=C(Nc1ccc(-c2ccc3cc(O)ccc3c2)cc1O)c1ccccc1` [Compound 36, N-[2-Hydroxy-4-(6-hydroxy-2-naphthyl)phenyl]benzamide], the inhibition at 1 µM is less than 10% and the inhibition at 0.1 µM was less than 10%.

Turning to `CNC(=O)c1cc2cc(-c3cccc(O)c3)ccc2cc1O` [Compound 37, 3-Hydroxy-7-(3-hydroxyphenyl)-N-methyl-2-naphthamide], the inhibition at 1 µM amounted to 18% and the inhibition at 0.1 µM was less than 10%.

For the molecule `O=C(Nc1ccccc1)c1cc2cc(-c3cccc(O)c3)ccc2cc1O` [Compound 38, 3-Hydroxy-7-(3-hydroxyphenyl)-N-phenyl-2-naphthamide], the inhibition at 1 µM was 62% and the inhibition at 0.1 µM came to 17%.

With `O=C(c1c(O)ccc2cc(-c3cccc(O)c3)ccc12)N1CCOCC1` [Compound 44, (2-Hydroxy-6-(3-hydroxyphenyl)naphthalene-1-yl)(morpholino)methanone], the inhibition at 1 µM was 62.4% and the inhibition at 0.1 µM amounted to 27.8%.

Turning to `O=C(c1c(O)ccc2cc(-c3cccc(O)c3)ccc12)N1CCNCC1` [Compound 45, (2-Hydroxy-6-(3-hydroxyphenyl)naphthalene-1-yl)(piperazin-1-yl)methanone], the inhibition at 1 µM was 44.5% and the inhibition at 0.1 µM is less than 10%.

As for `O=C(Nc1nccs1)c1c(O)ccc2cc(-c3cccc(O)c3)ccc12` [Compound 46, 2-Hydroxy-6-(3-hydroxyphenyl)-N-(thiazol-2-yl)-1-naphthamide], the inhibition at 1 µM was determined as 53% and the inhibition at 0.1 µM is less than 10%.

Turning to `Cc1noc(NC(=O)c2c(O)ccc3cc(-c4cccc(O)c4)ccc23)c1C` [Compound 47, N-(3,4-Dimethylisoxazol-5-yl)-2-hydroxy-6-(3-hydroxyphenyl)-1-naphthamide], the inhibition at 1 µM is 70% and the inhibition at 0.1 µM amounted to 43%.

Take `O=C(Nc1ccccn1)c1c(O)ccc2cc(-c3cccc(O)c3)ccc12` [Compound 49, 2-Hydroxy-6-(3-hydroxyphenyl)-N-(pyridin-2-yl)-1-naphthamide]: the inhibition at 1 µM worked out at 84% and the inhibition at 0.1 µM came out at 37%.

With `O=C(Nc1ncccn1)c1c(O)ccc2cc(-c3cccc(O)c3)ccc12` [Compound 50, 2-Hydroxy-6-(3-hydroxyphenyl)-N-(pyrimidin-2-yl)-1-naphthamide], the inhibition at 1 µM stood at 40% and the inhibition at 0.1 µM was less than 10%.

As to `O=C(c1c(O)ccc2cc(-c3cccc(O)c3)ccc12)N1CCCCC1` [Compound 51, (2-Hydroxy-6-(3-hydroxyphenyl)naphthalene-1-yl)(piperidin-1-yl)methanone], the inhibition at 1 µM is 73.4% and the inhibition at 0.1 µM was 28.8%.

Take `O=C(Nc1nccs1)c1cccc(-c2c(O)ccc3cc(-c4cccc(O)c4)ccc23)c1` [Compound 71, 3-(2-Hydroxy-6-(3-hydroxyphenyl)naphthalene-1-yl)-N-(thiazol-2-yl)benzamide]: the inhibition at 1 µM was found to be 74.7% and the inhibition at 0.1 µM stood at 66.4%.

`O=S(=O)(Nc1cccc(-c2c(O)ccc3cc(-c4cccc(O)c4)ccc23)c1)c1cccc2cccnc12` [Compound 73, N-{3-[2-hydroxy-6-(3-hydroxyphenyl)-1-naphthyl]phenyl}quinoline-8-sulfonamide]: the inhibition at 1 µM turned out to be 80.5% and the inhibition at 0.1 µM was 71.2%.

On to `O=S(=O)(Nc1cccc(-c2c(O)ccc3cc(-c4cccc(O)c4)ccc23)c1)c1ccc(Cl)s1` [Compound 74, 5-chloro-N-{3-[2-hydroxy-6-(3-hydroxyphenyl)-1-naphthyl]-phenyl}thiophene-2-sulfonamide], for which the inhibition at 1 µM was found to be 78% and the inhibition at 0.1 µM was found to be 46.4%.
